Measurements from patent US20060079453A1, “Hla binding peptides and their uses” (priority 2002, published 2006).
Read-outs that look alike come from different tables or passages of the source. No end group written: not given here.

Experiments:
HLA-A*0203 = HLA-A*0203 (Homo sapiens, UniProt P04439, A173T/D140Y/D185E/D98H/E277Q/G131W/G231S/I119V/I121R/I166T/I218V/L180W/L300P/L318F/N151K/N90K/P208A/P217A/Q86G/Q94H/R138H/R169H/T345S); assay: biochemical; format: binding
HLA-A*0206 = HLA-A*0206 (Homo sapiens, UniProt P04439, D140Y/D185E/D98H/E176V/E277Q/F33Y/G131W/G231S/I119V/I121R/I166T/I218V/L300P/L318F/N151K/N90K/P208A/P217A/Q86G/Q94H/R138H/R169H/T345S); assay: biochemical; format: binding
HLA-A*6802 = HLA-A*6802 (Homo sapiens, UniProt P04439, A269V/D140Y/D185E/E176V/E277Q/E87N/F33Y/G231S/I121R/I166T/I218V/L180W/L300P/L318F/N151K/P208A/P217A/Q86R/R138H/R169H/S129P/T345S/V36M); assay: biochemical; format: binding
HLA-A*0202 = HLA-A*0202 (Homo sapiens, UniProt P04439, D140Y/D185E/D98H/E176V/E277Q/G131W/G231S/I119L/I121R/I166T/I218V/L180W/L300P/L318F/N151K/N90K/P208A/P217A/Q67R/Q86G/Q94H/R138H/R169H/T345S); assay: biochemical; format: binding
HLA-A*2902 = HLA-A*2902 (Homo sapiens, UniProt P04439, A270S/D101N/D185E/E176V/E277Q/E87Q/F33T/G231S/H175R/I121M/I218V/I322F/K168Q/L300P/L318F/M331R/P208A/P217A/Q86L/T323A/T345S/V100A/V358M); assay: MHC molecular binding / Capture assay, IC50: A*2902
HLA-A*3002 = HLA-A*3002 (Homo sapiens, UniProt P04439, D101N/D140H/D185E/E176R/F33S/G80R/H175R/K168Q/Q94H/R138E/R41S/V100E); assay: biochemical; format: binding
HLA-DR DRB1*0101 (DR1) = HLA-DR DRB1*0101 (DR1) (Homo sapiens, UniProt P01903+P01911, A100R/D57E/F55L/F60I/F76Y/I96L/L162R/M171V/P40L/Q125E/R42F/V115G/Y59C); assay: biochemical; format: binding; details: DRB1 *0101
HLA-DR DRB1*0301 (DR3) = HLA-DR DRB1*0301 (DR3) (Homo sapiens, UniProt P01903+P01911, A100K/A102G/A103R/A169T/F55Y/I96L/K41T/L162R/M171V/P40S/Q125H/Q178H/Q39Y/R42S/S66N/T106N/T262R/W38E/Y61H); assay: biochemical; format: binding
Sequence of HLA-DR DRB1*0301 (DR3) (P01903 26-254 limits assumed, other chains not shown): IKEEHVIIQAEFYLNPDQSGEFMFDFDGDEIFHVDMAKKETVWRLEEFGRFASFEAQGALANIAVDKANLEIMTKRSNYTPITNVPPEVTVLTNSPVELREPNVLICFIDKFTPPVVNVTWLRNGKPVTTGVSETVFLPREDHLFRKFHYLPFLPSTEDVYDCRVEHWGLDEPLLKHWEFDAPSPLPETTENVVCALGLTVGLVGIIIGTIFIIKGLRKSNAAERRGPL

HLA-DR DRB1*0401 (DR4) = HLA-DR DRB1*0401 (DR4) (Homo sapiens, UniProt P01903+P01911, A100K/A169T/F76Y/I96L/K127E/L162R/M171V/N62H/P40V/Q125Y/R42H/S133A/S149N/S66Y/V115G/V209L/W38E); assay: biochemical; format: binding; details: DRB1 *0401
HLA-DR DRB1*0405 (DR4) = HLA-DR DRB1*0405 (DR4) (Homo sapiens, UniProt P01903+P01911, A100R/A169T/D86S/F76Y/I96L/K127E/L162R/M171V/N62H/P40V/Q125Y/R42H/S133A/S149N/S66Y/V115G/V209L/W38E); assay: biochemical; format: binding; details: DRB1 *0405
HLA-DR DRB1*0701 (DR7) = HLA-DR DRB1*0701 (DR7) (Homo sapiens, UniProt P01903+P01911, A100R/A102G/A103Q/D57E/D86V/E43K/F76Y/K127E/L162R/M171V/P40G/Q125H/Q99D/R33Q/R42Y/R54Q/S133A/S66F/T210M/V115G/Y107V/Y59L/Y89S); assay: biochemical; format: binding; details: DRB1 *0701
HLA-DR DRB1*0802 (DR8) = HLA-DR DRB1*0802 (DR8) (Homo sapiens, UniProt P01903+P01911, A100R/A103L/A169T/F76Y/H45Y/I96F/K41T/L162R/M171V/P40S/Q125H/Q178H/Q39Y/Q99D/R218S/R42G/S66Y/V115G/W38E); assay: biochemical; format: binding
HLA-DR DRB1*0901 (DR9) = HLA-DR DRB1*0901 (DR9) (Homo sapiens, UniProt P01903+P01911, A100R/A103E/D57H/D86V/F55Y/F60I/F76Y/I96F/K127E/L162R/M171V/P40D/Q125H/Q99R/R33Q/R42F/S133A/S66N/T210M/V115G/W38K/Y107V/Y59G/Y89S); assay: biochemical; format: binding; details: DRB1 *0901
HLA-DR DRB1*1101 (DR11) = HLA-DR DRB1*1101 (DR11) (Homo sapiens, UniProt P01903+P01911, A100R/A169T/A87E/I96F/K41T/L162R/M171V/P40S/Q125H/Q178H/Q39Y/Q99D/R42S/S66Y/T262R/V115G/W38E); assay: biochemical; format: binding; details: DRB1 *1101
Sequence of HLA-DR DRB1*1101 (DR11) (P01903 26-254 limits assumed, other chains not shown): as above

HLA-DR DRB1*1302 (DR13) = HLA-DR DRB1*1302 (DR13) (Homo sapiens, UniProt P01903+P01911, A100E/A169T/K41T/L162R/M171V/P40S/Q125H/Q178H/Q39Y/Q99D/R42S/S66N/T262R/V115G/W38E/Y61H); assay: biochemical; format: binding; details: DRBI *1302
Sequence of HLA-DR DRB1*1302 (DR13) (P01903 26-254 limits assumed, other chains not shown): as above

HLA-DR DRB1*1501 (DR15) = HLA-DR DRB1*1501 (DR15) (Homo sapiens, UniProt P01903+P01911); assay: biochemical; format: binding; details: DRBI *1501
HLA-DR DRB3*0101 (DR52) = HLA-DR DRB3*0101 (DR52) (Homo sapiens, UniProt P01903+P79483); assay: biochemical; format: binding
HLA-DR DRB4*0101 (DR53) = HLA-DR DRB4*0101 (DR53) (Homo sapiens, UniProt P01903+P13762, G164S); assay: biochemical; format: binding; details: DRB4 *0101
HLA-DR DRB5*0101 (DR51) = HLA-DR DRB5*0101 (DR51) (Homo sapiens, UniProt P01903+Q30154); assay: biochemical; format: binding; details: DRB5 *0101
[1] = A*0202 binding affinity (expressed as an IC50)
[2] = A*0203 binding affinity (expressed as an IC50)
[3] = A*0206 binding affinity (expressed as an IC50)
[4] = A*6802 binding affinity (expressed as an IC50)
[5] = Binding affinity to A*2902 (expressed as an IC50)
[6] = Binding affinity to A*3002 (expressed as an IC50)

KVGSLQYV
IC50 (HLA-A*0203): 0.703 µM | IC50 (HLA-A*0206): 1.9 µM | IC50 (HLA-A*6802): 17.5 µM

KVYGLSAFV
IC50 (HLA-A*0202; [1]): 0.0018 µM | IC50 (HLA-A*0203; [2]): 0.011 µM | IC50 (HLA-A*0206; [3]): 0.069 µM | IC50 (HLA-A*6802; [4]): 0.11 µM

KYQAVTTTL
IC50 (HLA-A*2902; A*2902 binding affinity (IC50)): > 156 µM

LFVVYRDSF
IC50 (HLA-A*2902): 0.919 µM | IC50 (HLA-A*3002): 0.018 µM

LLFGWCFKLV
IC50 (HLA-A*0202): 0.084 µM

LSEYYDXD1Y
IC50 (HLA-A*3002; read-out: Binding affinity to A*3002 (expressed as an IC50)): 0.489 µM

LTDVSIACVY
IC50 (HLA-A*2902): 0.764 µM | IC50 (HLA-A*3002): 0.072 µM

MTGNPAIPV
IC50 (HLA-A*0203; [2]): 0.01 µM

MTGNPPIPV
IC50 (HLA-A*0202; [1]): 0.011 µM | IC50 (HLA-A*0203; [2]): 0.00074 µM | IC50 (HLA-A*0206; [3]): 0.079 µM | IC50 (HLA-A*6802; [4]): 0.0078 µM

MTHNPPIPV
IC50 (HLA-A*0203; [2]): 0.0014 µM | IC50 (HLA-A*0206; [3]): 0.158 µM | IC50 (HLA-A*6802; [4]): 0.0014 µM

PVDPNLEPY
IC50 (HLA-A*3002): 7.12 µM

QAAESNERY
IC50 (HLA-A*2902; [5]): 24.3 µM | IC50 (HLA-A*3002; [6]): 3.01 µM

QLGPGPGLMEV
IC50 (HLA-A*0202; [1]): 0.0094 µM | IC50 (HLA-A*0203; [2]): 0.029 µM | IC50 (HLA-A*0206; [3]): 0.481 µM | IC50 (HLA-A*6802; [4]): 0.648 µM

RLFEESLGI
IC50 (HLA-A*0202; [1]): 0.0019 µM | IC50 (HLA-A*0203; [2]): 0.0055 µM | IC50 (HLA-A*0206; [3]): 0.068 µM | IC50 (HLA-A*6802; [4]): 0.418 µM

RLPVICSFLV
IC50 (HLA-A*0202; [1]): 0.0025 µM | IC50 (HLA-A*0203; [2]): 0.033 µM | IC50 (HLA-A*0206; [3]): 0.019 µM | IC50 (HLA-A*6802; [4]): 9.18 µM

SLGPGPGIAV
IC50 (HLA-A*0202; [1]): 0.0053 µM | IC50 (HLA-A*0203; [2]): 0.011 µM | IC50 (HLA-A*0206; [3]): 0.917 µM | IC50 (HLA-A*6802; [4]): 0.281 µM

SSFFMNRFY
IC50 (HLA-A*2902; [5]): 0.036 µM | IC50 (HLA-A*3002; [6]): 0.0075 µM

TYGWCFKL
IC50 (HLA-A*2902): 25.7 µM | IC50 (HLA-A*3002): > 8.04 µM

WQNYTPGPGV
IC50 (HLA-A*0203; [2]): 0.23 µM | IC50 (HLA-A*0206; [3]): 0.223 µM | IC50 (HLA-A*6802; [4]): 12 µM

YLPGPGIRYPL
IC50 (HLA-A*0202): 0.02 µM | IC50 (HLA-A*0203): 1.58 µM | IC50 (HLA-A*0206; [3]): 3.5 µM

YLVCGERGFLYTPKT
IC50 (HLA-DR DRB1*0101 (DR1)): 0.155 µM | IC50 (HLA-DR DRB1*0301 (DR3)): 2.03 µM | IC50 (HLA-DR DRB1*0401 (DR4)): > 20.5 µM | IC50 (HLA-DR DRB1*0405 (DR4)): > 30.1 µM | IC50 (HLA-DR DRB1*0701 (DR7)): 12.8 µM | IC50 (HLA-DR DRB1*0802 (DR8)): > 54.4 µM | IC50 (HLA-DR DRB1*0901 (DR9)): 0.124 µM | IC50 (HLA-DR DRB1*1101 (DR11)): > 1110 µM | IC50 (HLA-DR DRB1*1302 (DR13)): 2.12 µM | IC50 (HLA-DR DRB1*1501 (DR15)): > 25.6 µM | IC50 (HLA-DR DRB3*0101 (DR52)): > 95.2 µM | IC50 (HLA-DR DRB4*0101 (DR53)): 33.1 µM | IC50 (HLA-DR DRB5*0101 (DR51)): 0.971 µM

YYNNFNNNY
IC50 (HLA-A*2902; [5]): 0.019 µM | IC50 (HLA-A*3002; [6]): 0.034 µM
